One test relates to NMRI mice. Put plainly: CP 55,940-induced hypothermia in NMRI mice. The format is in vivo. The settings on record: po, CP 55,940 0.3 mg/kg i.v.; for Hypothermia in NMRI mice ID50 or minimum effective dose (MED), result in words: highest dose 30 mg/kg. As to the method:
Effect of CB1 Receptor Antagonist/Inverse Agonist on CP 55,940-Induced Hypothermia in NMRI Mice
Male NMRI mice were used in this study and were obtained from Research Consulting Company Ltd (RCC) of Füllinsdorf (Switzerland). Mice, weighing 30-31 g were used in this study. Ambient temperature is approximately 20-21° C. and relative humidity 55-65%. A 12 hours light-dark cycle is maintained in the rooms with all tests being performed during the light phase. Access to tap water and food are ad libitum.
All measurements were made between 12:00 am and 5:00 pm. Mice were brought in this environment and habituated for at least two hours before the start of the experiment. They had always free access to food and water. For each dose, 8 mice were used. Rectal body temperature measurements were recorded by mean of a rectal probe (RET2 of Physitemp) and digital thermometer (Digi-sense n°8528-20 of Cole Parmer, Chicago USA). The probe was inserted about 3.5 cm in each mouse.
The body temperature was taken 15 min before administration of either Vehicle or CB1 receptor antagonist/inverse agonist. 30 or 90 min after i.p. or p.o. administration of this compound, respectively, rectal body temperature was recorded in order to evaluate any influence of the compound itself. The CB receptor agonist CP 55,940 (0.3 mg/kg) was immediately administered intravenously, then 20 min after i.v. administration of CP 55940, body temperature was again measured.

For test [1], the target named is T1, human cannabis CB1 receptor (Homo sapiens, UniProt P21554).
T1 construct: expressed in transfected cells; host or cells: human embryonic kidney (HEK) cells, Semliki Forest Virus system, membrane preparation
T1 sequence (P21554 whole entry): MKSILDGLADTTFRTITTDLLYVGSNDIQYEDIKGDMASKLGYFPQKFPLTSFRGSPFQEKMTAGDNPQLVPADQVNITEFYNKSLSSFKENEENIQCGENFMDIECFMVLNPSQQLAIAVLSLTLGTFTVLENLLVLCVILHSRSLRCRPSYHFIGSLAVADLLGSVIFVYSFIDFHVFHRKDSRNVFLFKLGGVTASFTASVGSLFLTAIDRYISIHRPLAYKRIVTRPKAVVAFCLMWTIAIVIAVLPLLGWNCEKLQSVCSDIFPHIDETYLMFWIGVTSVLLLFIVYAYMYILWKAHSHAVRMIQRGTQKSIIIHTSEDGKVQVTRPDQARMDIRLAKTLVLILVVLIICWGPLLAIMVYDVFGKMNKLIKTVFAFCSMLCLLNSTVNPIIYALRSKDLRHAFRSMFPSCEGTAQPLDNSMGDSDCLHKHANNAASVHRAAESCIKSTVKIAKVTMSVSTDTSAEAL
Briefly: CB1 receptor affinity, [3H]-CP-55,940 radioligand binding on HEK cell membranes. As to the method:
The affinity of the compounds of the invention for cannabinoid CB1 receptors was determined using membrane preparations of human embryonic kidney (HEK) cells in which the human cannabis CB1 receptor is transiently transfected using the Semliki Forest Virus system in conjunction with [3H]-CP-55,940 as radioligand. After incubation of a freshly prepared cell membrane preparation with the [3H]-ligand, with or without addition of compounds of the invention, separation of bound and free ligand was performed by filtration over glassfiber filters. Radioactivity on the filter was measured by liquid scintillation counting.
The data is determined with the experimental conditions described in Devane et. al. Mol. Pharmacol. 34 (1988) 605-613.

Test [2] deals with obese Spague-Dawley rats fed a high fat diet. Put plainly: Body weight reduction in obese rats fed a high fat diet. The settings on record: over 17 days. Type of test: in vivo. An excerpt:
In vivo efficacy in the hypothermia model translated into efficacy in a disease related model, namely body weight reduction in obese Spague-Dawley rats fed a high fat diet (in analogy to Vickers et al. Psychopharmacology 2003, 167, 103-11 for obese fa/fa rats).

For test [3] the following is noted: doses of 10 and 20 mg daily; cited from earlier work.
[4] abbreviates: Table 1, read-out: IC50 (affinity for the CB1 receptor).
Where [5] appears, read: Table 2, read-out: CB1 receptor affinity IC50.

pIC50: −log10 of the molar value. Where two headings read alike, the source gives them in different places.

By pIC50 is commonly meant −log10 of the IC50, conventionally taken in molar units. Consider `O=C(c1cc2c(cc1F)O[C@@](c1ccccc1F)(c1ccc(Cl)cc1Cl)O2)N1CCOCC1` [S-(−)-[2-(2,4-dichloro-phenyl)-6-fluoro-2-(2-fluoro-phenyl)-benzo[1,3]dioxol-5-yl]-morpholin-4-yl-methanone], for which the “Hypothermia in NMRI mice ID50 or minimum effective dose (MED), result in words” value with NMRI mice was “inactive at 30”. The pIC50 in test [1] (setting [4]) was 7.48.
Take `O=C(c1cc2c(cc1F)OC(c1ccc(Cl)cc1)(c1ccc(Cl)cc1)O2)N1CCOCC1` [Meso-[2,2-Bis-(4-chloro-phenyl)-6-fluoro-benzo[1,3]dioxol-5-yl]-morpholin-4-yl-methanone, reference compound]: the “Hypothermia in NMRI mice ID50 or minimum effective dose (MED), result in words” value in the test on NMRI mice is “inactive at 30”. The pIC50 in test [1] (setting [5]) is 7.59.
As to `O=C(c1cc2c(cc1F)O[C@@](c1ccc(F)cc1)(c1ccc(Cl)cc1Cl)O2)N1CCOCC1` [S-(−)[2-(2,4-Dichloro-phenyl)-2-(4-fluoro-phenyl)-6-fluoro-benzo[1,3]dioxol-5-yl]-morpholin-4-yl-methanone], the pIC50 in test [1] (setting [4]) is 7.12.
`O=C(c1cc2c(cc1F)O[C@](c1ccc(F)cc1)(c1ccc(Cl)cc1Cl)O2)N1CCOCC1` [R-(+)-[2-(2,4-Dichloro-phenyl)-2-(4-fluoro-phenyl)-6-fluoro-benzo[1,3]dioxol-5-yl]-morpholin-4-yl-methanone]: the pIC50 in test [1] (setting [4]) is 8.15.
For the compound `Cc1c(C(=O)NN2CCCCC2)nn(-c2ccc(Cl)cc2Cl)c1-c1ccc(Cl)cc1` [rimonabant, reference compound], in test [2] (once daily 10 mg/kg po), the BW reduction came to 6.6%. Besides, the “body weight compared to placebo” value in test [3] is given as “significantly reduced body weight”.
Take `O=C(c1cc2c(cc1F)O[C@](c1ccc(Cl)cc1)(c1ccc(Cl)cc1Cl)O2)N1CCOCC1` [R-(−)-[2-(4-Chloro-phenyl)-2-(2,4-dichloro-phenyl)-6-fluoro-benzo[1,3]dioxol-5-yl]-morpholin-4-yl-methanone]: the “Hypothermia in NMRI mice ID50” value with NMRI mice is “ID50: 1.6 mg/kg po”. For the same compound, in test [1] (setting [4]), the pIC50 was 8.60. Further, the BW reduction in test [2] (once daily 3 mg/kg po) was 9.7%.
For `O=C(c1cc2c(cc1F)O[C@](c1ccccc1F)(c1ccc(Cl)cc1Cl)O2)N1CCOCC1` [R-(+)[2-(2,4-Dichloro-phenyl)-6-fluoro-2-(2-fluoro-phenyl)-benzo[1,3]dioxol-5-yl]-morpholin-4-yl-methanone], the “Hypothermia in NMRI mice ID50” value in the test on NMRI mice was “ID50: 4.0 mg/kg po”. Also, in test [1] (setting [4]), the pIC50 was 8.30.
Turning to `O=C(c1cc2c(cc1F)O[C@@](c1ccc(Cl)cc1)(c1ccc(Cl)cc1Cl)O2)N1CCOCC1` [S-(+)[2-(4-Chloro-phenyl)-2-(2,4-dichloro-phenyl)-6-fluoro-benzo[1,3]dioxol-5-yl]-morpholin-4-yl-methanone], in the test on NMRI mice, the “Hypothermia in NMRI mice minimum effective dose (MED)” value is recorded as “MED: 10 mg/kg po”. The pIC50 in test [1] (setting [4]) and in test [1] (setting [5]) was 7.77 each time.

Values taken from patent publication US20100056513A1, “STEREOSPECIFICALLY SUBSTITUTED BENZO[1,3]DIOXOLYL DERIVATIVES” (priority 2005, published 2010).
